Test results as given in article PMC11118710, “GLP-1 and Its Derived Peptides Mediate Pain Relief Through Direct TRPV1 Inhibition Without Affecting Thermoregulation” (Research Square, 2024).
Entries after “also recorded” stand apart in the source; their conditions may differ.

Assays:
[1] = test system: TRPV1 (mouse DRG neurons); assay: whole-cell patch-clamp, CAP-induced inward currents in mouse DRG neurons; format: cell-based; settings: 100 nM CAP
Procedure: DRGs were aseptically removed from 5–8-week-old mice and were incubated with collagenase A (0.2 mg/mL; Roche, Basel, Switzerland)/dispase-II (2.4 units/mL, Roche) at 37°C for 90 min. Cells were mechanically dissociated by gentle pipetting and placed on glass coverslips coated with poly-D-lysine.
DRG cells were then grown in a neurobasal-defined medium supplemented with 10% fetal bovine serum (FBS; Gibco, Waltham, MA), 2% B27 supplement (Invitrogen, Carlsbad, CA), and 1% penicillin/streptomycin for 24 h before experiments. Human TRPV1 (hTRPV1)-expressing CHO K1 cells were cultured using Dulbecco’s modified Eagle’s medium (DMEM) containing 10% FBS, 1% penicillin/streptomycin, and 800 μg/mL geneticin in an incubator with 5% CO2 at 37°C. HEK293 and HEK293T cells were also cultured in the same DMEM but without geneticin. […]
Whole-cell voltage-clamp and cell-attached patch-clamp recordings were conducted at room temperature to measure capsaicin (CAP)- or proton-induced currents in dissociated dorsal root ganglion (DRG) neurons and hTRPV1-expressing CHO K1 cells, respectively. […] CAP- or low pH-induced currents were recorded at a holding potential of − 60 mV. […] The data acquired were low-pass filtered at 2 kHz and sampled at 10 kHz, analyzed using PatchMaster and FitMaster (HEKA) software. […]

[2] = test system: CAP-induced thermal hyperalgesia in mice; assay: CAP-induced acute thermal hyperalgesia, Hargreaves test (PWL); format: in vivo, mouse (C57BL/6N); settings: CAP i.pl. (vehicle + CAP) vs vehicle
Procedure: (§1) To evaluate nociceptive behavior, the time spent licking the paw, the paw withdrawal threshold (PWT) to mechanical stimuli, and the PWL to heat were measured as described previously[36].
(§2) Licking time was recorded for 5 min after CAP injection in each group. Mechanical allodynia and thermal hyperalgesia were evaluated in separate experiments in a time-dependent manner. Mechanical allodynia was assessed using von Frey filaments (NC12775–99; North Coast Medical, CA). The 50% PWT was calculated using the up-down method. Thermal hyperalgesia was assessed by recording PWL using the Hargreaves radiant heat apparatus (IITC Life Sciences, Woodland Hills, CA). A cutoff value of 20 s was used to prevent tissue damage.

[3] = test system: CAP-induced mechanical allodynia in mice; assay: CAP-induced acute mechanical allodynia, von Frey test (PWT); format: in vivo, mouse (C57BL/6N)
Procedure: as §1, §2

heat sensitivity in mice [4] = assay: hot plate test, baseline heat sensitivity in naive mice; format: in vivo, mouse (C57BL/6N); settings: vs saline, n = 5
Procedure: The PWL to heat was measured after intraperitoneal administration of glucose (2.0 g/kg body weight) in a volume of 200 μL or after administration of the same volume of vehicle (0.9% saline) (n = 5 each).

[5] = test system: TRPV1 (mouse DRG neurons); assay: Ca2+ imaging, CAP-induced responses in mouse DRG neurons; format: cell-based; settings: 100 nM CAP, Fura-2 340/380 ratio; for CAP-induced Ca2+ responses, significance: vs control CAP
Procedure: (§3) At room temperature, Ca^2+ imaging was conducted in mouse DRG, HEK293T, and hTRPV1-expressing CHO K1 cells. […] The cells were then rinsed three times with the medium and incubated for 30 min, following which they were placed on the stage of an inverted microscope (BX51W1; Olympus, Tokyo, Japan) and continuously superfused at a flow speed of 1 mL/min with a bath solution containing 140 mM NaCl, 5 mM KCl, 1 mM CaCl2, 2 mM MgCl2, 10 mM HEPES, and 10 mM glucose, adjusted to pH 7.4 with NaOH. […] The fluorescence 340/380 ratio was measured using digital video microfluorometry with an intensified camera (OptiMOS; QImaging, Surrey, Canada) coupled to the microscope. Data were analyzed using SlideBook 6 (Intelligent Imaging Innovations, Denver, CO). At the end of the experiment, cells were identified based on their response to high concentrations of KCl.

human TRPV1 [6] = biological target: T1, human TRPV1 (Homo sapiens, UniProt Q8NER1); assay: Ca2+ imaging, CAP-induced responses in CHO K1 cells expressing human TRPV1; format: cell-based
T1 construct: expressed in transfected cells; host or cells: CHO K1 cells stably expressing human TRPV1 (geneticin selection)
Procedure: as §3

rat TRPV1 = assay: Ca2+ imaging, CAP-induced responses in HEK293T cells transfected with rat TRPV1; format: cell-based; settings: no GLP-1R expression, 100 nM peptide, 100 nM CAP, vs control CAP
Procedure: DRG cells were then grown in a neurobasal-defined medium supplemented with 10% fetal bovine serum (FBS; Gibco, Waltham, MA), 2% B27 supplement (Invitrogen, Carlsbad, CA), and 1% penicillin/streptomycin for 24 h before experiments. Human TRPV1 (hTRPV1)-expressing CHO K1 cells were cultured using Dulbecco’s modified Eagle’s medium (DMEM) containing 10% FBS, 1% penicillin/streptomycin, and 800 μg/mL geneticin in an incubator with 5% CO2 at 37°C. HEK293 and HEK293T cells were also cultured in the same DMEM but without geneticin. Rat TRPV1 plasmids were labeled with a green fluorescent protein to indicate subsequent calcium imaging. cDNA constructs of rat TRPV1 were transiently transfected into cells using Lipofectamine 2000 (Invitrogen). Ca^2+ imaging was performed one day after transient transfection.
At room temperature, Ca^2+ imaging was conducted in mouse DRG, HEK293T, and hTRPV1-expressing CHO K1 cells. Cells on poly-D-lysine-coated coverslips were loaded with 2 μM Fura-2 AM (Thermo Fisher Scientific, Waltham, MA) at 37°C for 40 min in DMEM. The cells were then rinsed three times with the medium and incubated for 30 min, following which they were placed on the stage of an inverted microscope (BX51W1; Olympus, Tokyo, Japan) and continuously superfused at a flow speed of 1 mL/min with a bath solution containing 140 mM NaCl, 5 mM KCl, 1 mM CaCl2, 2 mM MgCl2, 10 mM HEPES, and 10 mM glucose, adjusted to pH 7.4 with NaOH. Using illumination with a 175-W xenon arc lamp, excitation wavelengths (340/380 nm) were selected using a Lambda DG-4 monochromator wavelength changer (Shutter Instrument, Novato, CA). The fluorescence 340/380 ratio was measured using digital video microfluorometry with an intensified camera (OptiMOS; QImaging, Surrey, Canada) coupled to the microscope. Data were analyzed using SlideBook 6 (Intelligent Imaging Innovations, Denver, CO). At the end of the experiment, cells were identified based on their response to high concentrations of KCl.

heat sensitivity in mice [7] = assay: Hargreaves radiant heat test, naive mice, intraplantar administration; format: in vivo, mouse (C57BL/6N); settings: 10 μg intraplantar; vs saline; n = 5
[8] = test system: CAP-induced spontaneous pain behavior in mice; assay: CAP-induced spontaneous paw licking time; format: in vivo, mouse (C57BL/6N); settings: CAP 1.6 μg i.pl., n = 5
Procedure: as §1, §2

TRPA1 = assay: AITC-induced TRPA1 currents (subtype selectivity); format: cell-based; settings: 100 μM AITC; Supplementary Fig. 4
human TRPV1 [9] = biological target: T1, human TRPV1; assay: patch-clamp, CAP-induced inward currents in CHO K1 cells expressing human TRPV1; format: cell-based; settings: competition with BCTC / CAP
Procedure: (§4) Whole-cell voltage-clamp and cell-attached patch-clamp recordings were conducted at room temperature to measure capsaicin (CAP)- or proton-induced currents in dissociated dorsal root ganglion (DRG) neurons and hTRPV1-expressing CHO K1 cells, respectively. An EPC10 amplifier (HEKA, Stuttgart, Germany) was utilized for these recordings. Patch pipettes, prepared with a micropipette puller (Narishige, Tokyo, Japan), had resistances of 4–5 MΩ for whole-cell recordings and 6–8 MΩ for cell-attached recordings. The recording chamber, with a volume of 500 μL, was continuously superfused at a rate of 1–2 mL/min. CAP- or low pH-induced currents were recorded at a holding potential of − 60 mV. Series resistance was compensated (> 80%), and leak subtraction was performed. The data acquired were low-pass filtered at 2 kHz and sampled at 10 kHz, analyzed using PatchMaster and FitMaster (HEKA) software. […] The external solution of 140 mM NaCl, 5 mM KCl, 1 mM MgCl2, 2 mM EGTA, 10 mM HEPES, and 10 mM glucose, adjusted to pH 7.4 with NaOH, osmolarity 300–310 mOsm, was used for both techniques.

human TRPV1 [10] = biological target: T1, human TRPV1; assay: inside-out single-channel recording, hTRPV1-expressing CHO K1 cells; format: cell-based
Procedure: Inside-out recordings from hTRPV1-expressing CHO K1 cells were conducted using a pipette resistance of 8–9 MΩ. The internal solution for inside-out recordings matched that used for whole-cell and cell-attached methods, whereas the external solution (intracellular side) differed slightly, containing 2 mM CaCl2 instead of EGTA. The open probability and average single-channel opening and closing times for inside-out recordings were analyzed using a 50% threshold criterion, with all events double-checked before analysis.

human TRPV1 [11] = biological target: T1, human TRPV1; assay: Ca2+ imaging, proton-induced calcium influx in hTRPV1-expressing CHO K1 cells; format: cell-based; settings: 1 μM; pH 5.5
Procedure: as §3

human TRPV1 [12] = biological target: T1, human TRPV1; assay: patch-clamp, proton (low pH)-induced TRPV1 currents in hTRPV1-expressing CHO K1 cells; format: cell-based; settings: 1 μM; pH 5.5; −60 mV
Procedure: as §4

[13] = test system: SNI-induced heat hyperalgesia in mice; assay: SNI-induced neuropathic pain, heat hyperalgesia, Hargreaves test; format: in vivo, mouse; settings: for SNI heat hyperalgesia, onset of relief / SNI heat hyperalgesia, time of peak relief: post-administration; for SNI-induced heat hyperalgesia: n = 7
Source text: Under continuous anesthesia with isoflurane, mice underwent surgical manipulation to expose the left sciatic nerve by separating the muscle tissue. Upon visualization of the sciatic nerve, the peroneal and tibial nerves were ligated and transected at the lower end of the ligature using silk thread, while the sural nerve remained intact. The surgical site was then sutured, and iodine was applied for debridement. […] Subsequently, the heat sensitivity of the neuropathic pain model mice was assessed using the Hargreaves test.

GLP-1R = test system: GLP-1R; parameters: method as in PMID 9525985; settings: cited from earlier work
[14] = exendin 9–39 10 μg intraperitoneal
[15] = exendin 9–39 10 μg intraplantar

T1 sequence (Q8NER1 whole entry): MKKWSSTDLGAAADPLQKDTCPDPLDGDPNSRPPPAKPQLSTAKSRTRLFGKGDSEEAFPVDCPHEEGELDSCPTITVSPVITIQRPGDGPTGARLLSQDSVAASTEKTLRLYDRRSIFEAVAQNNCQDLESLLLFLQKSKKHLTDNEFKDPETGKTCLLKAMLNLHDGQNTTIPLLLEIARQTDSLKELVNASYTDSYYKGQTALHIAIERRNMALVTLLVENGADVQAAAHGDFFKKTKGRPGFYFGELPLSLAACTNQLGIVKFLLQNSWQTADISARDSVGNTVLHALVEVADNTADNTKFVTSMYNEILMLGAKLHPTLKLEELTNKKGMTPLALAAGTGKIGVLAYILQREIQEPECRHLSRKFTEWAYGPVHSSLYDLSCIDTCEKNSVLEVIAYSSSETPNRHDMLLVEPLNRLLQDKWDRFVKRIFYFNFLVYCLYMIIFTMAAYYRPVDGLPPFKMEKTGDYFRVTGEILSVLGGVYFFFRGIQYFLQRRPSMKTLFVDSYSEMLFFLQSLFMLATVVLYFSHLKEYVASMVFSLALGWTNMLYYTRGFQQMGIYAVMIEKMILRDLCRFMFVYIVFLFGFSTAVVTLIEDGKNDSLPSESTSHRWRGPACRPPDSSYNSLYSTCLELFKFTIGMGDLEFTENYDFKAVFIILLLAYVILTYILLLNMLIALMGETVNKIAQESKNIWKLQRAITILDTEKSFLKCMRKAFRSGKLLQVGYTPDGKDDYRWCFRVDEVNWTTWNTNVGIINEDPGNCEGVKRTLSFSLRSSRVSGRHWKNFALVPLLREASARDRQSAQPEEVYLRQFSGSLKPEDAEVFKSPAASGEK

In the case of `COc1cc(CNC(=O)CCCC/C=C/C(C)C)ccc1O` [CAP, capsaicin], the “CAP-induced inward currents (agonist effect)” value [1] is reported as “elicited inward currents”, the “paw withdrawal latency (PWL), Hargreaves test” value [2] is reported as “significantly lower in the vehicle + CAP than vehicle groups from 30 to 120 min” and the “paw withdrawal threshold (PWT), von Frey test” value ([3]; CAP i.pl. vs vehicle) is reported as “significantly reduced the PWT in the von Frey test from 30 to 120 min”.
With `OC[C@H]1OC(O)[C@H](O)[C@@H](O)[C@@H]1O` (stereo partly drawn) [glucose] the “heat sensitivity, hot plate test” value (heat sensitivity in mice [4]; glucose 2 g/kg i.p., 200 μL) was “exhibited a decrease in heat sensitivity as compared with the vehicle-treated group”.
With `CCCCCCCCCCCCCCCC(=O)N[C@@H](CCC(=O)NCCCC[C@H](NC(=O)[C@H](C)NC(=O)[C@H](C)NC(=O)[C@H](CCC(N)=O)NC(=O)CNC(=O)[C@H](CCC(=O)O)NC(=O)[C@H](CC(C)C)NC(=O)[C@H](Cc1ccc(O)cc1)NC(=O)[C@H](CO)NC(=O)[C@H](CO)NC(=O)[C@@H](NC(=O)[C@H](CC(=O)O)NC(=O)[C@H](CO)NC(=O)[C@@H](NC(=O)[C@H](Cc1ccccc1)NC(=O)[C@@H](NC(=O)CNC(=O)[C@H](CCC(=O)O)NC(=O)[C@H](C)NC(=O)[C@@H](N)Cc1c[nH]cn1)[C@@H](C)O)[C@@H](C)O)C(C)C)C(=O)N[C@@H](CCC(=O)O)C(=O)N[C@@H](Cc1ccccc1)C(=O)N[C@H](C(=O)N[C@@H](C)C(=O)N[C@@H](Cc1c[nH]c2ccccc12)C(=O)N[C@@H](CC(C)C)C(=O)N[C@H](C(=O)N[C@@H](CCCNC(=N)N)C(=O)NCC(=O)N[C@@H](CCCNC(=N)N)C(=O)NCC(=O)O)C(C)C)[C@@H](C)CC)C(=O)O` [liraglutide] the “CAP-induced Ca2+ responses, significance” value [5] was “****p<.0001, compared with control CAP”, the “reduction of CAP-induced Ca2+ responses” value ([5]; 100 nM peptide pretreatment, room temperature) was 58.1% and the LogIC50 (human TRPV1 [6]; CHO K1 human TRPV1, logistic fit, IC50 in nM, Fig. 5h) was 1.81. For the same compound, the “CAP-induced TRPV1 calcium responses” value (rat TRPV1) was “****p <.0001, compared with each control CAP”.
For GLP-1(7–36), the “heat sensitivity, hot plate test” value (heat sensitivity in mice [4]; GLP-1(7–36) 10 μg/kg i.p.) was “a reduction in heat sensitivity from 1 h”, the “CAP-induced Ca2+ responses, significance” value [5] was “****p<.0001, compared with control CAP” and the “CAP-induced TRPV1 calcium responses” value (rat TRPV1) was “****p <.0001, compared with each control CAP”. For the same compound, the “heat sensitivity (pain sensitivity), Hargreaves test” value (heat sensitivity in mice [7]) was “a reduction in pain sensitivity” and the CAP-induced licking behavior ([8]; GLP-1(7–36) 10 μg i.pl. for 10 min) was “****p<.0001, compared with the saline group; also recorded: significantly reduced pain-like (licking) behavior”.
For exendin 9–39, the “CAP-induced mechanical allodynia, von Frey test” value ([3]; exendin 9–39 5 or 10 μg, BCTC 0.5 μg, i.pl., n = 5) was “mechanical allodynia was dose-dependently alleviated”, the “effect on TRPA1 currents” value (TRPA1) was “did not inhibit or potentiate TRPA1 currents” and the “CAP-induced calcium influx, CHO K1 human TRPV1” value (human TRPV1 [6]; 100 nM peptide, 100 nM CAP, one-way ANOVA, Dunnett vs control CAP) was “****p <.0001, compared with control CAP”. The “mode of inhibition of CAP-induced TRPV1 activation” value (human TRPV1 [9]) was “noncompetitive inhibitor of CAP; also recorded: does not share the binding site with CAP and inhibits TRPV1 activation by interacting noncompetitively with CAP”, the “heat sensitivity (pain sensitivity), Hargreaves test” value (heat sensitivity in mice [7]) was “decreased heat sensitivity upon intraplantar injection” and the CAP-induced paw-licking time ([8]; exendin 9–39 5 and 10 μg i.pl., BCTC 0.5 μg, recorded 5 min) was “dose-dependent reduction in paw-licking time, similar to the effect observed with BCTC (0.5 μg) as the control”. The “side of TRPV1 binding” value (human TRPV1 [10]; cell-attached and inside-out recordings) was “binds to the extracellular side of TRPV1 but cannot penetrate the membrane”, the single-channel opening events (human TRPV1 [10]; pipette solution (extracellular side): 100 nM exendin 9–39, CAP 10 nM intracellular, −60 mV) was “the single-channel openings blocked” and the proton-induced calcium influx (human TRPV1 [11]) was “did neither reduce nor potentiate”. The proton-induced inward currents (human TRPV1 [12]) was “did neither reduce nor potentiate low pH-induced inward currents; also recorded: did not block or potentiate proton-induced channel activity”, the “SNI heat hyperalgesia, onset of relief” value [13, 14] was 1 h and the “SNI heat hyperalgesia, time of peak relief” value [13, 14] was 3 h. For the same compound, the SNI-induced heat hyperalgesia [13, 14] was “alleviated heat hyperalgesia”, the SNI-induced heat hyperalgesia ([13]; exendin 9–39 10 μg intraplantar, 14 days after SNI) was “alleviated heat hyperalgesia” and the “SNI heat hyperalgesia, onset of relief” value [13, 15] was 1 h. The “SNI heat hyperalgesia, time of peak relief” value [13, 15] was 3 h and the GLP-1 antagonism (GLP-1R) was “specific and competitive antagonist of GLP-1”.
